Patent US20030059436A1, “Band 3 antigenic peptides, malaria polypeptides and uses thereof” (priority 2001, published 2003)
“Also recorded” adds a separate entry of the source. Ends that are not written are not given here. * marks the point of attachment. Biotin = O=C1N[C@H]2[C@H](CS[C@H]2CCCCC(=O)*)N1

Experiments:
[1] = test system: P. falciparum (3D7 strain) invasion of human RBCs; experiment: Invasion inhibition assay by 3H-hypoxanthine incorporation method; type: cell-based, Plasmodium falciparum; settings: for inhibition of invasion, 3H-hypoxanthine uptake assay: 400 μM peptide, vs other Band 3 peptides, no peptide and unrelated peptide; for IC50: 3H-hypoxanthine incorporation method, mean of three experiments±standard error, read-out: IC50 (50% inhibition in the parasite invasion of RBCs)
Method: (§1) FIG. 2 depicts the inhibition of P. falciparum invasion into RBCs by human Band 3 peptides. […] Ectodomains are shown as boxes in the three models. (i) Overlapping 12 to 20-residue peptides shown in solid bars were prepared according to the putative ectodomain boundaries. (ii) Casey model (Fujinaga, J., et al., J Biol Chem 274:6626-6633, 1999). (iii) Reithmeier model (Popov, M., et al., J Biol Chem 272:18325-18332, 1997). (iv) Sherman model (Crandall, I., et al., Parasitology 108:257-267, 1994). […] Artemisinin (25 μM) and no peptide samples were positive and negative controls, respectively. FIG. 2C is a bar graph depicting of invasion inhibition assay by ^3H-hypoxanthine incorporation method. Effects of Band 3 peptides relative to the control sample (no peptide) are shown. Artemisinin (50 μM) and unrelated peptide derived from dematin were used as positive and negative control, respectively. FIG. 2D is a bar graph that depicts results of a growth inhibition assay by ^3H-hypoxanthine incorporation method. Effects of Band 3 peptides relative to the control sample (no peptide) are shown. In all inhibition assays, mean parasitemia from three experiments was calculated with standard error. DMSO background was corrected when necessary. Student's t test was used to compare with the control (no peptide). FIG. 2E is a table providing a summary of net charge and pI for Band 3 peptides.
(§2) To investigate the possible role of Band 3 as a host receptor in P. falciparum invasion into RBCs, we employed a peptide scanning strategy based on recent topology models of human erythroid Band 3 (FIG. 2A). Synthetic peptides were derived from the putative ectodomains of human RBC Band 3, and their ability to inhibit the P. falciparum (3D7 strain) invasion of human RBCs in culture was tested using both visual counting (Schlichtherle, M., et al., Methods in Malaria Research 2000) and ^3H-hypoxanthine incorporation (Chulay, J. D., et al., Exp Parasitol 55:138-146, 1983) methods. […] Inhibition by these four Band 3 peptides was concentration dependent (50, 200, 500, and 1000 μM peptides, data not shown).
The IC50 values for peptides 5A and 5B could not be estimated because a saturable peptide concentration could not be reached with a low DMSO (≦1%) concentration. It is noteworthy that our peptides 5A, 5B, 5C, and 6A were designed by randomly dividing the two ectodomains of Band 3, and thus these peptides may not necessarily represent Band 3 amino acid compositions having the best inhibitory property. […] These findings are consistent with the view that Band 3 functions as an important receptor in the parasite invasion of RBCs.

[2] = test system: P. falciparum intraerythrocytic growth; experiment: Growth inhibition assay by 3H-hypoxanthine incorporation method; type: cell-based, Plasmodium falciparum; settings: 400 μM peptide; vs no peptide control
Method: as §1, §2

[3] = biological target: P. falciparum (3D7 strain) merozoite proteins (approximate molecular masses 175, 150, 125, 52, 48, 42, and 35 kDa); experiment: cell-based or functional assay
[4] = test system: P. falciparum (3D7 strain) invasion of human RBCs; experiment: Invasion inhibition assay by visual counting method; type: cell-based, Plasmodium falciparum; settings: for inhibition of invasion, visual counting assay: 500 μM peptide, ring stage parasites in Giemsa-stained thin smears, vs other Band 3 peptides and no peptide control; for inhibition of the invasion of Plasmodium falciparum malaria parasite into human erythrocytes in vitro: peptide scanning experiment, compared to control sample
Method: as §1
Plasmodium parasite cultures were maintained at 37° C. as described by Klotz, F. W., et. al., J Exp Med 165:1713-1718, 1987. To determine infection in RBCs, rings were counted from RBCs in Geimsa-stained thin smears.
as §2

[5] = test system: P. falciparum (3D7 strain) merozoite proteins; experiment: Blot overlay assay, merozoite proteins; type: binding, Plasmodium falciparum; settings: biotinylated peptides each 400 μM
Method: (§3) Naturally released P. falciparum (3D7 strain) merozoites isolated as described (Mrema, J. E., et al., Exp Parasitol 54:285-295, 1982) and human RBC ghosts prepared as described (Dodge, J. T., et al., Arch Biochem Biophys 100:119-130, 1963) were subjected to SDS-PAGE. Proteins transferred onto nitrocellulose membrane were blocked overnight with 10% milk, 2% BSA, TBST (0.05%) at 4° C. After washing (4×) in TBST, the blot was incubated with biotinylated Band 3 peptides (each 400 μM) in TBST (0.025%), 10 mM phosphate buffer (pH 8.0), 60 mM KCl for 4 h at RT. After extensive washing, the blot was incubated with neutravidin-linked horseradish peroxidase (1:21,000, Pierce Chemical Co., Rockford, Ill.) in TBST (0.05%) with 2% BSA for 5-6 h at RT. After washing the blot with TBST (5×) and TBS (2×), bound peptides were visualized by the ECL method (Pierce Chemical Co.).
(§4) A binding study was carried out between the synthetic Band 3 peptides and merozoite proteins to understand the mechanism by which Band 3 peptides 5B, 5C, and 6A inhibit the parasite invasion of RBCs. P. falciparum merozoites essentially free of contaminating RBC membrane components were isolated (FIG. 3A), and total merozoite proteins were separated by SDS-PAGE (FIG. 3B). […] This was confirmed by Western blot using anti-spectrin and anti-Band 3 antibodies (not shown). […] Approximate molecular masses of these merozoite proteins are 175, 150, 125, 52, 48, 42, and 35 kDa (shown by arrowheads).

[6] = test system: GST-MSP138; experiment: Solution-binding assay, GST-MSP138 on beads; set-up: species or system P. falciparum (FCB1 strain)
From the text: MSP138 (SEQ ID NO:33), MSP142 (SEQ ID NO:34), and MSP119 (SEQ ID NO:35) genes were amplified from a P. falciparum (FCB1 strain) cDNA library (J. B. Dame) by PCR using the following primers: 5′-[…] (SEQ ID NO: 14, MSP138, sense, 3121-3133, Xhol), 5′-[…] (SEQ ID NO:15, MSP138, antisense, 4200-4193, NotI), 5′-[…] (SEQ ID NO:16, MSP142, sense, 4201-4218, XhoI), 5′-[…] (SEQ ID NO:17, MSP142, antisense, 5334-5321 NotI), 5′-[…]: (SEQ ID NO:18, MSP119, sense, 4993-5009 BamHI), 5′-[…] (SEQ ID NO:19, MSP119, antisense, 5334-5318, EcoRI). Similar cDNA libraries as well as CDNA pools are available to the public from MR4, ATCC (www.malaria.atcc.org).
Primers: 5′-[…] […] (SEQ ID NO:26, 6AB, antisense, 2640-2620, EcoRI).

[7] = test system: human RBC ghost proteins; experiment: Blot overlay assay, RBC ghost proteins; type: binding; settings: biotinylated peptides each 400 μM
Method: as §3, §4

[8] = biological target: T1, SV40 large T-antigen fused to GAL4 AD (pGADT7 vector), two-hybrid control (UniProt P03070 86-708); experiment: yeast two-hybrid assay
T1 construct: Kit control; also called pGADT7-T
T1 sequence (P03070 86-708 limits assumed): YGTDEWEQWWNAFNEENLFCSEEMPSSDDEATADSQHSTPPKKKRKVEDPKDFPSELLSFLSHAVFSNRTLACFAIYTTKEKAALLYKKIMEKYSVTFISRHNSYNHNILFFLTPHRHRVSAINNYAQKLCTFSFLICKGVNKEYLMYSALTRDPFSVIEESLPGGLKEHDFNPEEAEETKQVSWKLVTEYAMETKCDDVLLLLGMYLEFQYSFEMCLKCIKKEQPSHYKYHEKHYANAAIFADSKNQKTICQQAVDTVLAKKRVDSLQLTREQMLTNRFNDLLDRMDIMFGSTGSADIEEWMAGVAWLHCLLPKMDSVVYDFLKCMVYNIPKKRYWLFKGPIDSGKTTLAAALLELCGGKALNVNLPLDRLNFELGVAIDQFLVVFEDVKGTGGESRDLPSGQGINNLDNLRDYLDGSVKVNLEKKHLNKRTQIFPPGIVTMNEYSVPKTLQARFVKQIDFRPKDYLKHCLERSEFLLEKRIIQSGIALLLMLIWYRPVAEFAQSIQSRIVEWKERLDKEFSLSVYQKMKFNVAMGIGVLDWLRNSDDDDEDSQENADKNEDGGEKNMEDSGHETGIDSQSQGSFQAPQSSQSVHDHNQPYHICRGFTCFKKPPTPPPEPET
From the text: For the yeast two-hybrid assay, the co-transformation method was used to analyze the protein interaction in yeast AH109 cells using SD/-Leu/-Trp selection plates.

## Peptide 1: Synthetic human Band 3 peptide, amino acid 424-435, N-terminal biotin tag (Biotin-GGLLGEKTRNQM; UniProt P02730 424-435, looked up, fragment)
[1]
  inhibition of invasion, 3H-hypoxanthine uptake assay: moderate but significant levels of inhibition of invasion
[2]
  effect on intraerythrocytic growth of the parasite (3H-hypoxanthine uptake): mild reduction in 3H-hypoxanthine uptake

## Human Band 3 peptide 6A (amino acid 807-826), synthetic with N-terminal biotin tag
[3]
  IC50 values (50% inhibition in the parasite invasion of RBCs), 3H-hypoxanthine incorporation method: 316 µM

## Human Band 3 peptide 5C (amino acid 742-761), synthetic with N-terminal biotin tag
[3]
  IC50 values (50% inhibition in the parasite invasion of RBCs), 3H-hypoxanthine incorporation method: 591 µM

## GKASTPGAAAQIQEVKEQRI [Peptide 5C, Synthetic human Band 3 peptide, amino acid 742-761]
[4]
  inhibition of invasion, visual counting assay: significant levels of inhibition of invasion
[4]; listed as B35C
  inhibition of the invasion of Plasmodium falciparum malaria parasite into human erythrocytes in vitro: inhibited the invasion; also recorded: highest inhibition
[1]
  inhibition of invasion, 3H-hypoxanthine uptake assay: moderate but significant levels of inhibition of invasion
  IC50: 591 ± 131 µM
[5]
  binding to merozoite proteins, blot overlay: specifically bind
[2]
  effect on intraerythrocytic growth of the parasite (3H-hypoxanthine uptake): did not affect the intraerythrocytic growth of the parasite

## 5BC: Recombinant human Band 3 peptide, amino acid 731-761, expressed as GST or GAL4 DNA-BD fusion (SVTHANALTVMGKASTPGAAAQIQEVKEQRI; also: expressed as GST or GAL4 DNA-BD fusion) [Peptide 5BC]
[6]; 32P-labeled 5BC 21, 42, 84, 168 μM
  binding to GST-MSP138 on beads: concentration-dependent manner
[6]; 32P-labeled peptide, pH 7.4, 25° C., 3.5 h, C-terminal truncated GST-MSP138
  Kd: 67 µM

## SVTHANALTVMGKASTPGAA [Peptide 5B, Synthetic human Band 3 peptide, amino acid 731-750]
[4]
  inhibition of invasion, visual counting assay: significant levels of inhibition of invasion
  inhibition of the invasion of Plasmodium falciparum malaria parasite into human erythrocytes in vitro: inhibited the invasion
[1]
  inhibition of invasion, 3H-hypoxanthine uptake assay: moderate but significant levels of inhibition of invasion
[2]
  effect on intraerythrocytic growth of the parasite (3H-hypoxanthine uptake): did not affect the intraerythrocytic growth of the parasite

## 4A: Synthetic human Band 3 peptide, amino acid 623-642, N-terminal biotin tag (Biotin-FIQDTYTQKLSVPDGFKVSN; UniProt P02730 623-642, looked up, fragment) [Peptide 4A]
[7]
  binding to RBC ghost proteins, blot overlay: non-specific bindings
[5]
  binding to merozoite proteins, blot overlay: did not show significant binding

## 3A: Synthetic human Band 3 peptide, amino acid 538-557, N-terminal biotin tag (Biotin-SKLIKIFQDHPLQKTYNYNV; UniProt P02730 538-557, looked up, fragment) [Peptide 3A]
[7]
  binding to RBC ghost proteins, blot overlay: non-specific bindings
[5]
  binding to merozoite proteins, blot overlay: did not show significant binding

## DRILLLFKPPKYHPDVPYVK [Peptide 6A, Synthetic human Band 3 peptide, amino acid 807-826]
[4]
  inhibition of invasion, visual counting assay: significant levels of inhibition of invasion
[4]; listed as B36A
  inhibition of the invasion of Plasmodium falciparum malaria parasite into human erythrocytes in vitro: inhibited the invasion; also recorded: highest inhibition
[1]
  inhibition of invasion, 3H-hypoxanthine uptake assay: strong inhibition
  IC50: 316 ± 45 µM
[5]
  binding to merozoite proteins, blot overlay: specifically bind
[2]
  effect on intraerythrocytic growth of the parasite (3H-hypoxanthine uptake): did not affect the intraerythrocytic growth of the parasite

## GMPWLSATTVRSVTHANALT [Peptide 5A]
[4]
  inhibition of invasion, visual counting assay: significant levels of inhibition of invasion
  inhibition of the invasion of Plasmodium falciparum malaria parasite into human erythrocytes in vitro: inhibited the invasion
[2]
  effect on intraerythrocytic growth of the parasite (3H-hypoxanthine uptake): mild reduction in 3H-hypoxanthine uptake

## 2: Synthetic human Band 3 peptide, amino acid 477-491, N-terminal biotin tag (Biotin-SFCETNGLEYIVGRV; UniProt P02730 477-491, looked up, fragment) [Peptide 2]
[7]
  binding to RBC ghost proteins, blot overlay: non-specific bindings
[5]
  binding to merozoite proteins, blot overlay: did not show significant binding
[2]
  effect on intraerythrocytic growth of the parasite (3H-hypoxanthine uptake): mild reduction in 3H-hypoxanthine uptake

B1: GAL4 DNA-BD fusion of Band 3 peptide 5ABC (amino acids 720-761) in pGBKT7 (other)
peptide: GMPWLSATTVRSVTHANALTVMGKASTPGAAAQIQEVKEQRI
modifications: not fully specified (N-terminus); also: GAL4 DNA-BD fusion in pGBKT7, fused part not given here
notes: also called BD-5ABC; pGBKT7-5ABC
[8]
  binding result: no binding

B2: GAL4 DNA-BD fusion of Band 3 peptide 5BC (amino acids 731-761) in pGBKT7 (other)
peptide: SVTHANALTVMGKASTPGAAAQIQEVKEQRI
modifications: not fully specified (N-terminus); also: GAL4 DNA-BD fusion in pGBKT7, fused part not given here
[8]
  binding result: no binding

B3: GAL4 DNA-BD fusion of Band 3 peptide 6AB (amino acids 807-842) in pGBKT7 (other)
peptide: DRILLLFKPPKYHPDVPYVKRVKTWRMHLFTGIQII
modifications: not fully specified (N-terminus); also: GAL4 DNA-BD fusion in pGBKT7, fused part not given here
[8]
  binding result: no binding
